Columns and labels:
FL-mda-7 promoter = FL-mda-7 promoter luciferase reporter assay, transient transfection; assay type: cell-based, human; conditions: HO-1 and MeWo cells, 48 hr treatment, relative to uninduced; IFN-β 2000 units/ml, MEZ 10 ng/ml
Protocol: The effect of differentiation inducer drug treatment on full length mda-7 promoter activity. Fold induction of the FL-mda-7 promoter relative to the pGL3-Basic plasmid with or without differentiation inducer drug treatment in HO-1 (FIG. 1A) or MeWo (FIG. 1B) human melanoma cells. Luciferase assays were performed as previously described (Gopalkrishnan et al., 1999). In brief, the promoter-containing plasmids were transiently transfected into the different cell types using Superfect^R (Qiagen) according to the manufacturer's protocol. The cells were treated with differentiation inducers (IFN-β, 2000 units/ml; MEZ, 10 ng/ml; or IFN-β+MEZ, 2000 units/ml+10 ng/ml) for 48 h following transfection and assayed for luciferase activity using the Luc+Assat Kit (Promega). The SV40-p-Galactosidase plasmid was co-transfected with the luciferase constructs and used to normalize for variations in transfection efficiencies between experiments. […]
The presumptive promoter fragment was assayed for promoter activity using a heterologous gene reporter system (pGL3-Basic, luciferase assay system, Promega). […] The transfection efficiency was determined by cotransfection with RSV-β-galactosidase (Tropics β-Gal assay kit) and the relative luciferase activity was computed after correction for variations in transfection efficiencies.

mda-7 gene = assay: Nuclear run-on assay of mda-7 transcription; assay type: cell-based, human; conditions: HO-1 cells, 24 h treatment, versus uninduced control
Protocol: (FIG. 2A) Nuclear run-on assays using nuclei isolated from Control or 24 h after treatment with IFN-β, MEZ or IFN-β+MEZ, the same concentrations as indicated in FIG. 1. GAPDH was used as an internal control. In vitro transcription assays were performed as previously described (Jiang et al., 1993). […] GAPDH was used as an internal loading control.
Transcription of the housekeeping gene, GAPDH served as an internal control.

mda-7 mRNA [1] = assay: RT-PCR followed by Southern blotting of mda-7 mRNA; assay type: cell-based, human; conditions: HO-1 cells, compared to IFN-β+MEZ treated samples
Protocol: (FIG. 2B) Mda-7 message expression detected by Northern blotting and RT-PCR followed by Southern blotting. Total RNA from control (FIG. 2C) HO-1 cells and cells treated with IFN-β (I), MEZ (M) or IFN-β+MEZ (I+M) were analyzed by Northern blotting or RT-PCR/Southern using radiolabeled mda-7 cDNA as a probe as previously described (Jiang et al., 1993, 1995a; Kang et al., 1998a). GAPDH was used as an internal loading control.
To determine the possible presence of trace amounts of mda-7 mRNA in response to differentiation inducer treatment (IFN-β) and in the absence of treatment, a more sensitive method of message detection was employed, i.e., RT-PCR followed by Southern blotting.
Nucleic acid analysed. Total cytoplasmic RNA was prepared by the guanidinium-HCL extraction method followed by Northern blotting or RT-PCR analysis using previously published protocols (12, 18, 22). For Northern blots, 15 mg of RNA was denatured with glyoxal/DMSO, electrophoresed on 1% agarose gels, transferred to nylon membranes and hybridized with ^32P-dCTP labeled cDNA probes.

mda-7-ARE-3'-UTR = assay: Luciferase-mda-7-ARE-3'UTR reporter assay; assay type: cell-based, human; conditions: HO-1 cells
Source text: Posttranscriptional regulation of Luciferase mRNA as a consequence of mda-7-3′ UTR addition at its 3′-end. The Luciferase expression plasmid having SV40 polyadenylation signal sequence was replaced with the 3′-UTR region (approximately 900 bp) of mda-7. […] (FIG. 3A) Mda-7 3′-UTR mediated destabilization of luciferase mRNA was computed as fold induction of luciferase enzyme activity, which is seen only when stable luciferase mRNA, is synthesized. […] (FIG. 3B) Kinetic analysis of luciferase activity (as fold-induction) of the mda-7 promoter-luciferase-ARE-3′-UTR construct as a function of time of treatment with IFN-β+MEZ. Luciferase assays were performed as described by Gopalkrishnan et al. (1999) and briefly in the legend to FIGS. 1A-1B.
To examine the posttranscriptional regulation of mda-7 mRNA specifically during terminal differentiation of human melanoma cells, we constructed a Luciferease-mda-7-ARE-3′UTR plasmid under transcriptional control of either the FL-mda-7 promoter (FIG. 3) or the SV40 large T-antigen promoter. These plasmids were co-transfected into HO-1 cells and treated with differentiation inducers.

C/EBP-β/LAP = assay: Western blotting of C/EBP-β/LAP protein in whole cell lysates; assay type: cell-based, human; conditions: HO-1 cells, 24 h treatment
Protocol: (§1) FIGS. 8A-8C. Protein expression pattern of the transcription factors cJun/AP-1 and C/EBP-β and their ability to transactivat the mda-7 promoter. [FIG. 8A] Whole cell lysates from HO-1 control cells (C) and those treated with IFN-β (I), MEZ (M), IFN-β+MEZ (I+M) or TPA were resolved on a 4-20% SDS-PAGE gel and transblotted onto nitrocellulose filters. Immobilized proteins were then analyzed by Western blotting using commercially available cJun/AP-1 and C/EBP-β specific antibodies. […] Equal protein loading was determined by Coomassie blue staining of a parallel gel. [FIG. 8B] […]
(§2) Electrophoresis and immunoblotting. Equal amounts of whole cell proteins were analyzed by sodium dodecylsulfate-polyacrylamide gel electrophoresis (SDS-PAGE, 4-20% gradient gel; Novex) and electrotransferred onto ECL grade nitrocellulose (Amersham) as described previously (24). […]
(§3) AP-1 and C/EBP families of transcription factors are responsible for mda-7 promoter activation during human melanoma differentiation. […] Western blot analyses of whole cell lysates (equal protein loading was verified by Coomassie blue staining of a parallel gel, data not shown) from uninduced HO1 cells and cultures treated for 24 h with IFN-β, MEZ, IFN-β+MEZ or TPA were analyzed using anti-cJun/AP-1, anti-C/EBP-α or anti-C/EBP-β antibodies. […]

mda-7 mRNA [2] = assay: Northern blotting of mda-7 message; assay type: cell-based, human; conditions: HO-1 cells, 24 h treatment
Source text: FIGS. 5A-5B. Message and protein expression analyses of mda-7 during melanoma terminal differentiation. (FIG. 5A) Northern blotting analysis of mda-7 message expression. Total RNA was isolated from HO-1 cells that were uninduced (C) or treated with IFN-β (I), MEZ (M) or IFN-β+MEZ (I+M) and analyzed by Northern blotting. 28S RNA was used as a loading control. Mda-7 message was detected using a random primed [^32P]-labeled mda-7 cDNA probe (18). (FIG. 5B) Indirect immunofluorescence visualization of MDA-7 protein subcellular localization. Both uninduced HO-i cells (Control; A and S) and terminally differentiated (48 h IFN-β+MEZ treated; C and D) were immuno-labeled using anti-MDA-7 specific monoclonal antibody. Anti-mouse secondary antibodies conjugated with Rhodamine enabled visualization of MDA-7 protein localization (A and C) and the DNA specific dye, DAPI was used to stain nuclei (B and D). With the exception of a cell undergoing mitosis no other cells reveal MDA-7 staining in control cultures (A and B). Terminally differentiated cells in (C) and (D) show strong punctate MDA-7 staining within the nucleus (See enlargement below (C) and (D) of a single nucleus). The arrow points to the punctate bodies to which MDA-7 localizes in the nucleus and their coincidence with DAPI bright staining regions.
Nucleic acid analysed. […]

HO-1 cells = conditions: cited from earlier work
cJun/AP-1 = assay: Western blotting of cJun/AP-1 protein in whole cell lysates; assay type: cell-based, human; conditions: HO-1 cells, 24 h treatment, compared to uninduced controls
Protocol: as §1, §2, §3

mda-7 mRNA [3] = assay: Effect of cycloheximide on mda-7 mRNA stability, Northern blotting; assay type: cell-based, human; conditions: MEZ treated HO-1 cells, cycloheximide 10 μg/ml for 3 h; lesser extent in control and IFN-β treated samples
Protocol: (§4) FIGS. 4A-4B. Effect of actinomycin D and cycloheximide on th half-life and stability of the mda-7 message. […] Northern blotting analyses were performed on total RNA isolated from control (C)HO-1 or cells treated with IFN-β (I), MEZ (M) or IFN-β+MEZ (I+M), at the same concentrations as in FIG. 1. Twenty-four h after exposure to the inducing agent(s), acitnomycin D (Act.D, 5 μg/ml) was added (+Act.D) for 30 minutes (30′) or one h (1′). Mda-7 expression was detected using a radiolabeled mda-7 cDNA probe as previously described (Jiang et al., 1995a). rRNA visualized by ethidium bromide was used as a loading control. (FIG. 4B) Effect of cycloheximide treatment on mda-7 mRNA stability relative to p21/mda-6 Untreated control (C)HO-1 cells or cells treated for 24 h with IFN-β (I), MEZ (M) or IFN-β+MEZ at the same concentrations as in FIGS. 1A-1B. After 24 h induction, cells were treated with or without cycloheximide (10 μg/ml) for 3 h and total RNA was isolated and analyzed by Northern blotting. Mda-7 expression was detected using a radiolabeled mda-7 cDNA probe (Jiang et al., 1995a). The blot was allowed to decay for 3 months, and then reprobed using a radiolabeled probe against a p21/mda-6 cDNA (Jiang et al., 1995b). rRNA visualized by ethidium bromide was used as a loading control. […]

p21/Waf1/Cip1/mda-6 = assay: Effect of cycloheximide on p21/mda-6 message, Northern blotting; assay type: cell-based, human; conditions: HO-1 cells, cycloheximide 10 μg/ml for 3 h
Protocol: as §4

mda-7 promoter = mda-7 promoter activity on IL-6 treatment; assay type: cell-based; conditions: cells treated with IL-6, unpublished data
Protocol: It appears that C/EBP-B/LAP binding sites at a distance from the TATA element are responsible for mda-7 expression in terminally differentiated human melanoma cells. Another line of evidence supporting the involvement of the C/EBP gene family in melanoma terminal differentiation is apparent from increased levels of C/EBP-B/LAP protein in HO-1 cells as early as 24 h after treatment with IFN-β+MEZ when compared to cells treated with IFN-β, MEZ or TPA. The transcription factor C/EBP is a heat-stable, sequence-specific DNA-binding protein first purified from rat liver nuclei (39). C/EBP regulates gene expression in a variety of tissues including liver, adipose, lung and intestine (40). This transcription factor appears to function exclusively in differentiated and growth-arrested cells (40). […] It is the ratio of LIP/LAP that is important in C/EBP-mediated gene expression. In the case of terminally differentiated HO-1 melanoma cells, we were unable to detect any LIP protein. The present studies provide evidence that the C/EBP gene family members, C/EBP-B/LAP in particular, play a major role during melanoma terminal differentiation. C/EBP-a and -B can both directly induce the mda-7 promoter as shown by ectopic expression analyses. […]

## C=C(C)[C@@]12O[C@@]3(c4ccccc4)O[C@@H]1[C@@H]1[C@@H]4O[C@]4(CO)[C@@H](O)[C@]4(O)C(=O)C(C)=C[C@H]4[C@@]1(O3)[C@H](C)[C@H]2OC(=O)/C=C/C=C/c1ccccc1 [MEZ, mezerein]
FL-mda-7 promoter
  activity of the FL-mda-7 promoter (luciferase): only small changes
mda-7 gene
  rate of mda-7 transcription: the same
mda-7 mRNA [1]
  mda-7 mRNA by RT-PCR: lower levels
mda-7-ARE-3'-UTR
  luciferase enzyme activity of Luciferase-mda-7-ARE-3'UTR construct: minimal
C/EBP-β/LAP
  level of C/EBP-β/LAP protein: approximately 3 fold
mda-7 mRNA [2]
  mda-7 message by Northern blotting: Quantitatively less
HO-1 cells
  growth suppression and differentiation: reversible

## CCCCCCCCCCCCCC(=O)O[C@@H]1[C@@H](C)[C@@]2(O)[C@@H](C=C(CO)C[C@]3(O)C(=O)C(C)=C[C@@H]23)[C@@H]2C(C)(C)[C@]12OC(C)=O [TPA]
cJun/AP-1
  level of cJun/AP-1 protein: only marginally increased

## C[C@@H]1C[C@@H]([C@H](O)CC2CC(=O)NC(=O)C2)C(=O)[C@@H](C)C1 [cycloheximide]
mda-7 mRNA [3]
  accumulation of mda-7 mRNA: visibly increased
p21/Waf1/Cip1/mda-6
  p21/mda-6 message accumulation: does not show message accumulation

## IL-6: potent inducer of NF-IL6
mda-7 promoter
  mda-7 promoter activity: induced

— patent US6841362B1, “Melanoma differentiation associated gene-7 promoter and uses thereof” (The Trustees of Columbia University in the City of New York, priority 2000, dated 2005)
